# Measured values from patent publication US11447482B1, “Imidazopyridine and oxazolopyridine derivatives and analogs thereof, methods of preparation thereof, methods of HIF-2A pathway inhibition, and induction of ferroptosis” (KUDA Therapeutics, Inc., priority 2019, dated 2022).
# Biological target: HIF-2α transcriptional activity
# Test: Hypoxia-responsive element-driven luciferase (HRE-Luc) assay
# Assay type: cell-based, human
# Conditions: 786-0 CCRCC cells stably expressing HRE-Luc, 24 hours treatment
# Experimental: Screens for inhibitory activity of compounds described herein were performed using 786-0 CCRCC cells that stably express HRE-Luc: 5 copies of the hypoxia-responsive element (HRE) fused to the pGL3 luciferase reporter (Promega Corp, Madison Wis.). 786-0 cells are pVHL deficient and thus constitutively express HIF-2α independently of cellular oxygen tension (Maxwell, Wiesener et al. 1999). Since 786-0 cells lack HIF-1α, HRE-driven luciferase activity is primarily HIF-2α driven, and has been previously validated (Koh, Lemos et al. 2011). Cells were maintained at log phase growth in Dulbecco's […] (DMEM) with 10% FBS in a humidified incubator at 37° C. with 5% CO2. For screening assays, cells were seeded at a density of 4,000 cells in 50 μl of complete media/well in quadruplicate wells/point in a 96-well plate. 24 hours later, 50 μl of a 2× concentration of test compound was added to each well. Compounds were diluted from a 5-10 mM stock in DMSO and final concentrations of DMSO in each well in controls and treated wells were kept constant at ≤0.6% DMSO. After 24 hours' treatment, luciferase activity was measured using the Steady-Glo Luciferase assay system (Promega Corp) according to the manufacturer's protocol. Cell viability was measured in quadruplicate parallel wells using resazurin as recommended by the manufacturer (R&D systems, Minneapolis, Minn.). Data for luciferase and resazurin were normalized to DMSO treated controls (defining 100%) and wells containing assay reagent but no cells (defining 0%), and graphed using the log inhibitor versus normalized response option in Prism7 Graphpad software. Representative data determined using Steady-Glo luciferase and resazurin are shown in FIGS. 1A and 1B respectively, with error bars showing standard error of the mean (SEM).
row,IC50 [µM],SMILES
1,28.3,"COc1ccc(-c2nnc(Nc3nc4c(Cl)nccc4[nH]3)o2)cc1 [KD022, N-(4-chloro-1H-imidazo[4,5-c]75yridine-2-yl)-5-(4-methoxyphenyl)-1,3,4-oxadiazol-2-amine]"

# Same assay, conditions: Homo sapiens; 786-0 CCRCC cells stably expressing HRE-Luc, 24 hours treatment
row,SMILES,IC50 [µM]
1,"COc1ccc2[nH]c(Nc3nnc(-c4ccc(F)cc4)o3)nc2n1 [KD003, 5-(4-Fluorophenyl)-N-(5-methoxy-1H-imidazo[4,5-b]pyridin-2-yl)-1,3,4-oxadiazol-2-amine]",8.16
2,"Fc1ccc(-c2nnc(Nc3nc4cnc(Cl)cc4[nH]3)o2)cc1 [KD004, N-(6-Chloro-1H-imidazo[4,5-c]pyridin-2-yl)-5-(4-fluorophenyl)-1,3,4-oxadiazol-2-amine]",40.3
3,"CN1CCN(c2cc3[nH]c(Nc4nnc(-c5ccc(F)cc5)o4)nc3cn2)CC1 [KD010, 5-(4-Fluorophenyl)-N-(6-(4-methylpiperazin-1-yl)-1H-imidazo[4,5-c]pyridin-2-yl)-1,3,4-oxadiazol-2-amine]",> 100
4,"Fc1ccc(-c2nnc(Nc3nc4ccnc(N5CCOCC5)c4[nH]3)o2)cc1 [KD016, 5-(4-Fluorophenyl)-N-(4-morpholino-3H-imidazo[4,5-c]pyridin-2-yl)-1,3,4-oxadiazol-2-amine]",10.2
5,"Fc1ccc(-c2nnc(Nc3nc4cncc(N5CCOCC5)c4[nH]3)o2)cc1 [KD017, 5-(4-Fluorophenyl)-N-(7-morpholino-1H-imidazo[4,5-c]pyridin-2-yl)-1,3,4-oxadiazol-2-amine]",16.3
6,"COc1nccc2[nH]c(Nc3nnc(-c4ccc(OC(F)(F)F)cc4)o3)nc12 [KD020, N-(4-methoxy-1H-imidazo[4,5-c]pyridin-2-yl)-5-(4-(trifluoromethoxy)phenyl)-1,3,4-oxadiazol-2-amine]",16.5
7,"COc1nccc2[nH]c(Nc3nnc(-c4ccc5c(c4)OCO5)o3)nc12 [KD026, N-(4-Methoxy-1H-imidazo[4,5-c]pyridin-2-yl)-5-(benzo[d][1,3]dioxol-5-yl)-1,3,4-oxadiazol-2-amine]",2.72
8,"COc1nccc2[nH]c(Nc3nnc(-c4ccc(C)cc4)o3)nc12 [KD028, N-(4-methoxy-1H-imidazo[4,5-c]pyridin-2-yl)-5-(p-tolyl)-1,3,4-oxadiazol-2-amine]",9.12
9,"COc1ccc(-c2nnc(Nc3nc4ncccc4o3)o2)cc1 [KD029, N-(5-(4-Methoxyphenyl)-1,3,4-oxadiazol-2-yl)oxazolo[4,5-b]pyridin-2-amine]",6.1
10,"COc1nccc2[nH]c(Nc3nnc(-c4ccc(C#N)cc4)o3)nc12 [KD031, 4-(5-((4-Methoxy-1H-imidazo[4,5-c]pyridin-2-yl)amino)-1,3,4-oxadiazol-2-yl) benzonitrile]",3.7
11,"COc1ccc(-c2nnc(Nc3nc4c(OC)nccc4[nH]3)o2)cn1 [KD038, N-(4-Methoxy-1H-imidazo[4,5-c]pyridin-2-yl)-5-(6-methoxypyridin-3-yl)-1,3,4-oxadiazol-2-amine]",7.6
12,"COc1nccc2[nH]c(Nc3nnc(-c4ccc(C(C)(C)C)cc4)o3)nc12 [KD042, 5-(4-(tert-Butyl)phenyl)-N-(4-methoxy-1H-imidazo[4,5-c]pyridin-2-yl)-1,3,4-oxadiazol-2-amine]",> 100

# Other lines, results leading:
row,IC50 [µM],SMILES
1,16.1,"Fc1ccc(-c2nnc(Nc3nc4cnc(C(F)(F)F)cc4[nH]3)o2)cc1 [KD005HCL, 5-(4-Fluorophenyl)-N-(6-(trifluoromethyl)-1H-imidazo[4,5-c]pyridin-2-yl)-1,3,4-oxadiazol-2-amine]"
2,23.8,"Cc1cncc2nc(Nc3nnc(-c4ccc(F)cc4)o3)[nH]c12 [KD006TFA, 5-(4-Fluorophenyl)-N-(7-methyl-1H-imidazo[4,5-c]pyridin-2-yl)-1,3,4-oxadiazol-2-amine]"
3,52.3,"COc1ccc2nc(Nc3nnc(-c4ccc(F)cc4)o3)sc2n1 [KD008, 5-(4-Fluorophenyl)-N-(5-methoxythiazolo[5,4-b]pyridin-2-yl)-1,3,4-oxadiazol-2-amine]"
4,15.4,"Fc1ccc(-c2nnc(Nc3nc4cnc(N5CCOCC5)cc4[nH]3)o2)cc1 [KD009, 5-(4-Fluorophenyl)-N-(6-morpholino-1H-imidazo[4,5-c]pyridin-2-yl)-1,3,4-oxadiazol-2-amine]"
5,37.6,"Fc1ccc(-c2nnc(Nc3nc4cnc(Cl)nc4[nH]3)o2)cc1 [KD013, N-(2-Chloro-9H-purin-8-yl)-5-(4-fluorophenyl)-1,3,4-oxadiazol-2-amine]"
6,> 100,"CS(=O)(=O)C1CCN(c2cc3[nH]c(Nc4nnc(-c5ccc(F)cc5)o4)nc3cn2)CC1 [KD015, 5-(4-Fluorophenyl)-N-(6-(4-(methylsulfonyl)piperidin-1-yl)-1H-imidazo[4,5-c]pyridin-2-yl)-1,3,4-oxadiazol-2-amine]"
7,72.7,"COc1cccc(-c2nccc3nc(Nc4nnc(-c5ccc(F)cc5)o4)[nH]c23)c1 [KD018, 5-(4-Fluorophenyl)-N-(4-(3-methoxyphenyl)-3H-imidazo[4,5-c]pyridin-2-yl)-1,3,4-oxadiazol-2-amine]"
8,32.6,"COc1nccc2[nH]c(Nc3nnc(-c4ccc(C(F)(F)F)cc4)o3)nc12 [KD019, N-(4-methoxy-1H-imidazo[4,5-c]pyridin-2-yl)-5-(4-(trifluoromethyl)phenyl)-1,3,4-oxadiazol-2-amine]"
9,2.83,"COc1nccc2[nH]c(Nc3nnc(-c4ccc(N(C)C)cc4)o3)nc12 [KD027, N-(4-Methoxy-1H-imidazo[4,5-c]pyridin-2-yl)-5-(4-(dimethylamino)phenyl)-1,3,4-oxadiazol-2-amine]"
10,19.9,"Fc1ccc(-c2nnc(Nc3nc4ccnc(-c5ccc6c(c5)OCO6)c4[nH]3)o2)cc1 [KD030, N-(4-(Benzo[d][1,3]dioxol-5-yl)-3H-imidazo[4,5-c]pyridin-2-yl)-5-(4-fluorophenyl)-1,3,4-oxadiazol-2-amine]"
11,1.94,"COc1ccc(-c2nnc(Nc3nc4c(OC)nccc4[nH]3)o2)cc1F [KD032, 5-(3-Fluoro-4-methoxyphenyl)-N-(4-methoxy-1H-imidazo[4,5-c]pyridin-2-yl)-1,3,4-oxadiazol-2-amine]"
12,6.86,"COc1nccc2[nH]c(Nc3nnc(-c4ccc(OC5CC5)cc4)o3)nc12 [KD040, 5-(4-Cyclopropoxyphenyl)-N-(4-methoxy-1H-imidazo[4,5-c]pyridin-2-yl)-1,3,4-oxadiazol-2-amine]"
13,22.6,"COc1nccc2[nH]c(Nc3nnc(-c4ccc(OC(C)C)cc4)o3)nc12 [KD041, 5-(4-Isopropoxyphenyl)-N-(4-methoxy-1H-imidazo[4,5-c]pyridin-2-yl)-1,3,4-oxadiazol-2-amine]"
